From PubChem BioAssay (NCI) come the findings set out here.

Among the test systems are A498 renal; ACHN renal; CCRF-CEM leukemia; HCT-15 colon; MDA-N; NCI-H460 lung; PC-3 prostate; SF-295 CNS; SN12C renal; SNB-19 CNS; UO-31 renal.
Holding throughout (assay): growth of human tumour cells (NCI), 48 h

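Dose response: 5 concentrations. Exposure: 48 h. Format: 96-well plates. Endpoint: linear interpolation; highest concentration if not reached. At the TGI there is no net growth.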 Some results are limits rather than exact numbers.

For the compound `Cc1c(C)c2c(c(N)c1C#N)C(=O)N(NC(=O)c1ccccc1)C2=O`, the TGI with A498 renal, in the assay on ACHN renal, with CCRF-CEM leukemia, in the assay with HCT-15 colon, in the assay with MDA-N and in the assay on NCI-H460 lung was over 100 µM in each case. The TGI with PC-3 prostate, in the assay with SF-295 CNS, in the assay on SN12C renal, in the assay on SNB-19 CNS and with UO-31 renal was over 100 µM throughout.

On to `N#C[C@H](c1ccccn1)c1nc2ccccc2nc1Cl`, for which the TGI in the assay with A498 renal, with ACHN renal, with CCRF-CEM leukemia, in the assay with HCT-15 colon, in the assay with MDA-N and with NCI-H460 lung was over 100 µM in each case. In addition, the TGI in the assay with PC-3 prostate, in the assay on SF-295 CNS, in the assay with SN12C renal, in the assay with SNB-19 CNS and in the assay on UO-31 renal was over 100 µM in each case.

On to `C=C(Cl)C(=CCl)CCC(Br)C(C)(C)Cl` (mixture of isomers), for which the TGI in the assay on A498 renal is over 10 µM; in the assay with ACHN renal, over 10 µM; in the assay with CCRF-CEM leukemia, 6.89 µM; in the assay with HCT-15 colon, over 10 µM; in the assay on MDA-N, over 10 µM; in the assay on NCI-H460 lung, over 10 µM. Also, the TGI in the assay on PC-3 prostate, with SF-295 CNS, with SN12C renal, in the assay with SNB-19 CNS and in the assay with UO-31 renal was over 10 µM in each case.

For the compound `O=C1COc2cccnc2N1CCCCO`, the TGI in the assay with A498 renal, in the assay on ACHN renal, in the assay on CCRF-CEM leukemia, in the assay on HCT-15 colon, in the assay with MDA-N and in the assay with NCI-H460 lung was over 100 µM throughout. In addition, the TGI in the assay on PC-3 prostate, in the assay with SF-295 CNS, in the assay on SN12C renal, in the assay with SNB-19 CNS and with UO-31 renal was over 100 µM each time.

On to `O=c1[nH]cnc2c1cnn2Cc1cn(CCCCO)nn1`, for which the TGI in the assay with A498 renal, in the assay on ACHN renal, in the assay on CCRF-CEM leukemia, in the assay with HCT-15 colon, in the assay with MDA-N and with NCI-H460 lung was over 100 µM each time. Also, the TGI in the assay with PC-3 prostate, in the assay with SF-295 CNS, with SN12C renal, with SNB-19 CNS and in the assay on UO-31 renal was over 100 µM each time.

As for `O=C1C=CC(=O)c2c1ccc1c3ccccc3n(CCCCCn3c4ccccc4c4ccc5c(c43)C(=O)C=CC5=O)c21`, the TGI in the assay with A498 renal was over 95.7 µM; in the assay with ACHN renal, 28.6 µM; in the assay with CCRF-CEM leukemia, 6.58 µM; in the assay on HCT-15 colon, 36.2 µM; in the assay with MDA-N, 40.1 µM; in the assay on NCI-H460 lung, over 100 µM. Further, the TGI is 33.9 µM in the assay on PC-3 prostate; over 100 µM in the assay with SF-295 CNS; 41.5 µM in the assay on SN12C renal; over 100 µM with SNB-19 CNS; 16.4 µM with UO-31 renal.

On to `CN1C(=O)c2ccccc2OC12C=Cc1c(ccc3ccccc13)O2` (configuration not stated), for which the TGI in the assay with A498 renal was 44.9 µM; with ACHN renal, 10.2 µM; with CCRF-CEM leukemia, over 29.6 µM; in the assay on HCT-15 colon, over 25.5 µM; in the assay on MDA-N, 10.4 µM; in the assay on NCI-H460 lung, 42.5 µM. The TGI in the assay on PC-3 prostate is 16.8 µM; with SF-295 CNS, 12.7 µM; in the assay on SN12C renal, over 57.1 µM; in the assay with SNB-19 CNS, over 59.4 µM; in the assay on UO-31 renal, 35.8 µM.

Consider `O=C1Nc2cccc(Cl)c2/C1=C\c1c(Cl)nc2n1CCS2`, for which the TGI in the assay on A498 renal, with ACHN renal, in the assay on CCRF-CEM leukemia, in the assay on HCT-15 colon, with MDA-N and in the assay with NCI-H460 lung was over 100 µM each time. The TGI in the assay with PC-3 prostate, with SF-295 CNS, in the assay with SN12C renal, in the assay on SNB-19 CNS and in the assay with UO-31 renal was over 100 µM each time.

As to `CC(C)(C)OC(=O)NC1CCCCC1NC(=O)C(=O)NC1CCCCC1NC(=O)OC(C)(C)C` (configuration not stated), the TGI is 79.6 µM with A498 renal; over 100 µM in the assay with ACHN renal; over 100 µM with CCRF-CEM leukemia; over 100 µM in the assay with HCT-15 colon; over 100 µM in the assay on MDA-N; over 100 µM in the assay with NCI-H460 lung. Besides, the TGI in the assay with PC-3 prostate, in the assay with SF-295 CNS, with SN12C renal, in the assay on SNB-19 CNS and with UO-31 renal was over 100 µM in each case.

With `COC(=O)C1=C(C(=O)OC)N(c2ccc(OC)cc2[N+](=O)[O-])C(c2ccc(C)cc2)=CC1c1ccc(OC)cc1OC` (configuration not stated), the TGI in the assay with A498 renal is 46.3 µM; with ACHN renal it was over 100 µM; in the assay with CCRF-CEM leukemia, over 32.4 µM; in the assay with HCT-15 colon, 57.9 µM; with MDA-N, over 100 µM; in the assay with NCI-H460 lung, 98.7 µM. The TGI in the assay with PC-3 prostate was over 100 µM; with SF-295 CNS, over 100 µM; with SN12C renal, 26.5 µM; with SNB-19 CNS, over 95.6 µM; in the assay with UO-31 renal it was over 31.6 µM.

As to `CC1(C)C(C#N)C1C1=C(N2CCOCC2)[C@]2(C)C(OC(=O)c3ccccc3)CC[C@@H]2C1` (some centres not stated), the TGI with A498 renal, with ACHN renal, in the assay on CCRF-CEM leukemia, with HCT-15 colon, in the assay with MDA-N and in the assay with NCI-H460 lung was over 100 µM in each case. Also, the TGI in the assay with PC-3 prostate, with SF-295 CNS, in the assay on SN12C renal, with SNB-19 CNS and in the assay on UO-31 renal was over 100 µM throughout.

Consider `COC(=O)c1ccc(/C=C/c2cc(O)ccc2O)cc1`, for which the TGI was 33 µM with A498 renal; 14.1 µM in the assay with ACHN renal; 0.719 µM in the assay with CCRF-CEM leukemia; 12.2 µM in the assay on HCT-15 colon; over 46.7 µM with MDA-N; 25.9 µM in the assay on NCI-H460 lung. Besides, the TGI with PC-3 prostate was 22.2 µM; in the assay on SF-295 CNS, over 100 µM; in the assay with SN12C renal, 18.8 µM; in the assay on SNB-19 CNS, over 100 µM; in the assay with UO-31 renal it was 3.67 µM.
